For three compounds, residual activity results are on record in the kinase profiling compilation of Christmann-Franck et al. (2016).

HIPK1 (human), sequence (Q86Z02 whole entry, looked up): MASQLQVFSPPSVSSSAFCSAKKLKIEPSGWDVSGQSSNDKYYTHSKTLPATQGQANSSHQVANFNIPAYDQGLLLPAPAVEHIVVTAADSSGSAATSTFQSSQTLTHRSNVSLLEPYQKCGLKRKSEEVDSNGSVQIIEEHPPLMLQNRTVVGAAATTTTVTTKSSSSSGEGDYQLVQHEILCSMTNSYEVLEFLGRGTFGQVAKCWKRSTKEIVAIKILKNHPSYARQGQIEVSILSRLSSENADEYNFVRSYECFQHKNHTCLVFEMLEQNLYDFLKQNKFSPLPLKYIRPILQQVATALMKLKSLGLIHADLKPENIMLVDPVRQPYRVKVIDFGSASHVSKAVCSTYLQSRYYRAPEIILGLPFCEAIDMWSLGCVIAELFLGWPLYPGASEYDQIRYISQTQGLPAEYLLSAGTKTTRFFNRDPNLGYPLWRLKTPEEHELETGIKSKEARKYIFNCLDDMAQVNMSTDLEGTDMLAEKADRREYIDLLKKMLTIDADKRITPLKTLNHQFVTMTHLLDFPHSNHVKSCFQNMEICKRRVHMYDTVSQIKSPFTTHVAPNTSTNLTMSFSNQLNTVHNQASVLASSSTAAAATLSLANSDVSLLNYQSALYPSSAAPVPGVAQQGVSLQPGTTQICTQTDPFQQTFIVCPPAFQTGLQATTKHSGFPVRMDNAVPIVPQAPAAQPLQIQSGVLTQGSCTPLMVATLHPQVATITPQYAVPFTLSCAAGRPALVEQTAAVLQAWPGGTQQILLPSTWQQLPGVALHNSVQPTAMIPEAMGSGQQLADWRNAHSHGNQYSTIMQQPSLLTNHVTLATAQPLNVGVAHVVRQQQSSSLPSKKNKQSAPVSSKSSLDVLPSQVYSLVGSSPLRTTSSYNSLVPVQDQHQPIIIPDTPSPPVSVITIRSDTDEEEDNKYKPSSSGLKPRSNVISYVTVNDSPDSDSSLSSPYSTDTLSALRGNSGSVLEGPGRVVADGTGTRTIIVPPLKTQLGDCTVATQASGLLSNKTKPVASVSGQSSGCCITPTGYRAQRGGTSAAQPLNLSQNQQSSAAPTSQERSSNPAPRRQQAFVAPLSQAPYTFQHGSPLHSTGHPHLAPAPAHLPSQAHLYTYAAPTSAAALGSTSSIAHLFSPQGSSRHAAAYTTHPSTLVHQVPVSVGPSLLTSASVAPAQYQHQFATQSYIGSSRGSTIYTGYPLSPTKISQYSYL
MAP3K10 (human), sequence (Q02779 whole entry, looked up): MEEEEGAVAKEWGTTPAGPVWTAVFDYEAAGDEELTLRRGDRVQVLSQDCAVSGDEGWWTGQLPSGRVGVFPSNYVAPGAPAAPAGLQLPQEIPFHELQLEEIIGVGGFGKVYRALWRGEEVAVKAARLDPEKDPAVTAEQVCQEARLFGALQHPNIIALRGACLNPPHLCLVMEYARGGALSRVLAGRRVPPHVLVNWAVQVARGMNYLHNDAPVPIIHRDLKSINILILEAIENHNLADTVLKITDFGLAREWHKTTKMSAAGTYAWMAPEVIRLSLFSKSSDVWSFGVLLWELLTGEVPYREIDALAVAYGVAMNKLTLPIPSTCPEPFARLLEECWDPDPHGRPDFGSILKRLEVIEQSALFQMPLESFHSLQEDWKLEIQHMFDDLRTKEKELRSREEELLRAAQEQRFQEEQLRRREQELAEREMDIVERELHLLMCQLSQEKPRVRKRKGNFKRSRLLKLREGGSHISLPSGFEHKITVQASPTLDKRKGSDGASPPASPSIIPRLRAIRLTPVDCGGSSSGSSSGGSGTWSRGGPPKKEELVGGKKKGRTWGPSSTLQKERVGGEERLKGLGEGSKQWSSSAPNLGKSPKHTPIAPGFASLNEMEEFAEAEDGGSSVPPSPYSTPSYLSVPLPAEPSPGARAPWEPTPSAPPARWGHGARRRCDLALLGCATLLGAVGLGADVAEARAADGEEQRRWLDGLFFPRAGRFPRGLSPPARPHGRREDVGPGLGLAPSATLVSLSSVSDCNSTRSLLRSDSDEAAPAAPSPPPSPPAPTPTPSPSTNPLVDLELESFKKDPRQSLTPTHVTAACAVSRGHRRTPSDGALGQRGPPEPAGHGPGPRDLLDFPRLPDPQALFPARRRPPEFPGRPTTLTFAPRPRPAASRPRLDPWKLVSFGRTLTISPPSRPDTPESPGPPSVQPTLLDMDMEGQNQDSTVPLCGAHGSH
FES (human), sequence (P07332 whole entry, looked up): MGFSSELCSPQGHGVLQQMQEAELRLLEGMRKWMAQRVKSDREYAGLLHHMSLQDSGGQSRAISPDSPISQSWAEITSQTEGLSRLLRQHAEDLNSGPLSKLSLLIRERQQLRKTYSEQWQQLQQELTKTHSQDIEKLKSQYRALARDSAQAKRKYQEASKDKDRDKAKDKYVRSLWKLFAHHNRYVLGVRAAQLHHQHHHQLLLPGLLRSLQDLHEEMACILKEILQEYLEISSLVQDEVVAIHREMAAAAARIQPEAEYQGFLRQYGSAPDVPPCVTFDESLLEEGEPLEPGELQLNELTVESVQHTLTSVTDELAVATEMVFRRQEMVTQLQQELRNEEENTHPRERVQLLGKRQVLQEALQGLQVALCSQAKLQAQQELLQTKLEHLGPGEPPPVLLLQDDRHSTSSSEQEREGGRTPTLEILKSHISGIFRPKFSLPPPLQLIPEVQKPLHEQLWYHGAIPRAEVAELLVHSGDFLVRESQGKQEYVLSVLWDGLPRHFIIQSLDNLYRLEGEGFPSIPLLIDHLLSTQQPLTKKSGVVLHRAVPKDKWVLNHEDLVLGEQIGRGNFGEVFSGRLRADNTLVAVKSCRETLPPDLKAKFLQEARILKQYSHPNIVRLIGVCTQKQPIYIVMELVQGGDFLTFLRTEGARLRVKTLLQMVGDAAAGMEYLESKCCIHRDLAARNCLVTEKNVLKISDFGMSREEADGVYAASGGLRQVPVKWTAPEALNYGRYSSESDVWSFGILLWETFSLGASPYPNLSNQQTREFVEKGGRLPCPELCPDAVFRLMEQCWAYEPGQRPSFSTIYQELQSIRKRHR

The first assay concerns the target ABL2 (human) (UniProt P42684). In words: radiometric filter-binding kinase assay, Kinase HotSpot. Conditions: compound 0.5 µM; ATP 10 µM.
`CCN(CC)CCCCN1c2ccccc2Oc2ccc(Cl)cc21`: the residual activity (commonly the signal under treatment as a percentage of the control signal) was 101%.

Consider `CC(=O)O/N=C1\C(=C2\C(=O)Nc3cc(Br)ccc32)Nc2ccccc21`, for which the residual activity amounted to 26.4%.

In the case of `O=C(O)/C=C/c1cc(Br)c(Br)c(Br)c1Br`, the residual activity is 88.7%.

The target of the next assay is ACVR1 (human) (UniProt Q04771). Described as above. Particulars: compound 0.5 µM; ATP 10 µM.
ACVR1 (human), sequence (Q04771 whole entry, looked up): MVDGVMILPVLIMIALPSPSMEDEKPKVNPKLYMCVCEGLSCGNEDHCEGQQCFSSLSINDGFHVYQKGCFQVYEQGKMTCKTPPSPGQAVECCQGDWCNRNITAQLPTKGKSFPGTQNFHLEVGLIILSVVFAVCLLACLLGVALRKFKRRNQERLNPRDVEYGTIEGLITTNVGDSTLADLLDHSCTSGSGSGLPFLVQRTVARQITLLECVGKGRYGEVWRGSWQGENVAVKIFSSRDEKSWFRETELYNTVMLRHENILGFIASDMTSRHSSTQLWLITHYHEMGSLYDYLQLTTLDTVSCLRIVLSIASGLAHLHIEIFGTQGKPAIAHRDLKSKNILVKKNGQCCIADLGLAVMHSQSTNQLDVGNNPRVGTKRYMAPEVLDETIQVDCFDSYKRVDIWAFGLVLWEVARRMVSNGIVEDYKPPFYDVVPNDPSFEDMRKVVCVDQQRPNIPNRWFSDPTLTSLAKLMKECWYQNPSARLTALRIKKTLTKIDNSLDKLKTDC
For the compound `CCN(CC)CCCCN1c2ccccc2Oc2ccc(Cl)cc21`, the residual activity was 101%.

Take `CC(=O)O/N=C1\C(=C2\C(=O)Nc3cc(Br)ccc32)Nc2ccccc21`: the residual activity worked out at 102%.

For the compound `O=C(O)/C=C/c1cc(Br)c(Br)c(Br)c1Br`, the residual activity is 92.1%.

Another assay addresses BRSK2 (human) (UniProt Q8IWQ3). The assay is described as above. Particulars: compound 0.5 µM; ATP 10 µM.
Turning to `CCN(CC)CCCCN1c2ccccc2Oc2ccc(Cl)cc21`, the residual activity turned out to be 107%.

Take `CC(=O)O/N=C1\C(=C2\C(=O)Nc3cc(Br)ccc32)Nc2ccccc21`: the residual activity stood at 43.4%.

Take `O=C(O)/C=C/c1cc(Br)c(Br)c(Br)c1Br`: the residual activity was determined as 91.1%.

Another assay has as its target CDC42BPB (human) (UniProt Q9Y5S2). The assay is described as above. Conditions: compound 0.5 µM; ATP 10 µM.
As for `CCN(CC)CCCCN1c2ccccc2Oc2ccc(Cl)cc21`, the residual activity amounted to 99.7%.

Regarding `CC(=O)O/N=C1\C(=C2\C(=O)Nc3cc(Br)ccc32)Nc2ccccc21`, the residual activity amounted to 94.7%.

Turning to `O=C(O)/C=C/c1cc(Br)c(Br)c(Br)c1Br`, the residual activity was 97.4%.

For a further assay, the target named is CDK6 CCND3 (human) (UniProt P30281+Q00534). The description is as above. Particulars: compound 0.5 µM; ATP 10 µM.
CDK6 CCND3 (human), sequence (P30281 whole entry, looked up): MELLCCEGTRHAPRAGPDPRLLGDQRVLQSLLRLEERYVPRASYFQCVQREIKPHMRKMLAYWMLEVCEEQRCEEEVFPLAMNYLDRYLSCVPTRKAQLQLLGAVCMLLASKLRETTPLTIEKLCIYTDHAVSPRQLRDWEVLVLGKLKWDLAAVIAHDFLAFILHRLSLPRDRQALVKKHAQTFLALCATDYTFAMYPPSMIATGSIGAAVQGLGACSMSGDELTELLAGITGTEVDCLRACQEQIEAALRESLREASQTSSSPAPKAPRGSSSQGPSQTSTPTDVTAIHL
CDK6 CCND3 (human), sequence (Q00534 whole entry, looked up): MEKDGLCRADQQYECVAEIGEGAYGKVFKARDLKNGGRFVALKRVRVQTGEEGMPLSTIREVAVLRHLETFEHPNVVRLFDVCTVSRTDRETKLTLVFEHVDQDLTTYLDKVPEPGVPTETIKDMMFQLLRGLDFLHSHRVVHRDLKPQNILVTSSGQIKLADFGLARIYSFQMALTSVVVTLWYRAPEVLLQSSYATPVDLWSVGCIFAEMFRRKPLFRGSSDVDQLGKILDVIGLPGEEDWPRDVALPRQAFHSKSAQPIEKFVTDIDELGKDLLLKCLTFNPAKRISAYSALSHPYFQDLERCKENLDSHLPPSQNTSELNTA
Turning to `CCN(CC)CCCCN1c2ccccc2Oc2ccc(Cl)cc21`, the residual activity came out at 102%.

In the case of `CC(=O)O/N=C1\C(=C2\C(=O)Nc3cc(Br)ccc32)Nc2ccccc21`, the residual activity came out at 40.9%.

For the compound `O=C(O)/C=C/c1cc(Br)c(Br)c(Br)c1Br`, the residual activity stood at 102%.

For another assay, the target named is CHEK1 (human) (UniProt O14757). The assay is described as above. Conditions: compound 0.5 µM; ATP 10 µM.
CHEK1 (human), sequence (O14757 whole entry, looked up): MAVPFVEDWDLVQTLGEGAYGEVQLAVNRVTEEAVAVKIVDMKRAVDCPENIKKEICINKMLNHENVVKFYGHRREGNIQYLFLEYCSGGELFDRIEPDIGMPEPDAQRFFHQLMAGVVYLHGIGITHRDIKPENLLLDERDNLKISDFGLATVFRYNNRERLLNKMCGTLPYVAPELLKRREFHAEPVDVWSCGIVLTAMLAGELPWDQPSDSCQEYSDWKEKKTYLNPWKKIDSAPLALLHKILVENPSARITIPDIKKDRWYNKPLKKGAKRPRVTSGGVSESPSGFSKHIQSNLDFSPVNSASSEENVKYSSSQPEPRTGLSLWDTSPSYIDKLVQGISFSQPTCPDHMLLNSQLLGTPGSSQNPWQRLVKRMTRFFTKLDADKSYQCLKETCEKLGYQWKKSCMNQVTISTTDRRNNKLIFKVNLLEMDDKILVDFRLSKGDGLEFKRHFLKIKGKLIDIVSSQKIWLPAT
On to `CCN(CC)CCCCN1c2ccccc2Oc2ccc(Cl)cc21`, for which the residual activity is 101%.

`CC(=O)O/N=C1\C(=C2\C(=O)Nc3cc(Br)ccc32)Nc2ccccc21`: the residual activity came out at 100%.

As to `O=C(O)/C=C/c1cc(Br)c(Br)c(Br)c1Br`, the residual activity amounted to 135%.

The target of the next assay is CSNK1D (human) (UniProt P48730). The description is as above. Particulars: compound 0.5 µM; ATP 10 µM.
As to `CCN(CC)CCCCN1c2ccccc2Oc2ccc(Cl)cc21`, the residual activity turned out to be 105%.

`CC(=O)O/N=C1\C(=C2\C(=O)Nc3cc(Br)ccc32)Nc2ccccc21`: the residual activity was 92.3%.

In the case of `O=C(O)/C=C/c1cc(Br)c(Br)c(Br)c1Br`, the residual activity is 59.1%.

For the next assay, the target named is CSNK1G1 (human) (UniProt Q9HCP0). The assay is described as above. Particulars: compound 0.5 µM; ATP 10 µM.
CSNK1G1 (human), sequence (Q9HCP0 whole entry, looked up): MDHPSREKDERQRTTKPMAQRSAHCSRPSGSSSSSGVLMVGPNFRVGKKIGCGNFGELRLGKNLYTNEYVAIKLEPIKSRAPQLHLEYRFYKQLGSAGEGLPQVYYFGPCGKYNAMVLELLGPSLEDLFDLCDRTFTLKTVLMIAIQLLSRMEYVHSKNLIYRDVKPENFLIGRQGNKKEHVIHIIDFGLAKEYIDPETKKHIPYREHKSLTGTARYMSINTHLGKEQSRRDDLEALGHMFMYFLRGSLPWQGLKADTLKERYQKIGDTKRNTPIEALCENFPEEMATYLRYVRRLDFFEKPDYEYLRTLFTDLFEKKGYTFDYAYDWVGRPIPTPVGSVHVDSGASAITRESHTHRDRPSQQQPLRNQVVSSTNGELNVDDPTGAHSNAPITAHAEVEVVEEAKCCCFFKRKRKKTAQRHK
Take `CCN(CC)CCCCN1c2ccccc2Oc2ccc(Cl)cc21`: the residual activity was determined as 104%.

Regarding `CC(=O)O/N=C1\C(=C2\C(=O)Nc3cc(Br)ccc32)Nc2ccccc21`, the residual activity is 93.9%.

In the case of `O=C(O)/C=C/c1cc(Br)c(Br)c(Br)c1Br`, the residual activity was 97.2%.

The next assay deals with DYRK1A (human) (UniProt Q13627). The assay is described as above. Particulars: compound 0.5 µM; ATP 10 µM.
For `CCN(CC)CCCCN1c2ccccc2Oc2ccc(Cl)cc21`, the residual activity turned out to be 104%.

Turning to `CC(=O)O/N=C1\C(=C2\C(=O)Nc3cc(Br)ccc32)Nc2ccccc21`, the residual activity is 111%.

For `O=C(O)/C=C/c1cc(Br)c(Br)c(Br)c1Br`, the residual activity is 74.8%.

The target of the next assay is DYRK2 (human) (UniProt Q92630). The description is as above. Particulars: compound 0.5 µM; ATP 10 µM.
Turning to `CCN(CC)CCCCN1c2ccccc2Oc2ccc(Cl)cc21`, the residual activity was determined as 101%.

Turning to `CC(=O)O/N=C1\C(=C2\C(=O)Nc3cc(Br)ccc32)Nc2ccccc21`, the residual activity was determined as 94.4%.

Take `O=C(O)/C=C/c1cc(Br)c(Br)c(Br)c1Br`: the residual activity was 79.4%.

The next assay addresses EPHA8 (human) (UniProt P29322). The description is as above. Particulars: compound 0.5 µM; ATP 10 µM.
For `CCN(CC)CCCCN1c2ccccc2Oc2ccc(Cl)cc21`, the residual activity came to 102%.

As for `CC(=O)O/N=C1\C(=C2\C(=O)Nc3cc(Br)ccc32)Nc2ccccc21`, the residual activity was 96.3%.

Consider `O=C(O)/C=C/c1cc(Br)c(Br)c(Br)c1Br`, for which the residual activity amounted to 99.1%.

The target in the next assay is EPHB1 (human) (UniProt P54762). The assay is described as above. Conditions: compound 0.5 µM; ATP 10 µM.
With `CCN(CC)CCCCN1c2ccccc2Oc2ccc(Cl)cc21`, the residual activity amounted to 110%.

Turning to `CC(=O)O/N=C1\C(=C2\C(=O)Nc3cc(Br)ccc32)Nc2ccccc21`, the residual activity amounted to 99.9%.

In the case of `O=C(O)/C=C/c1cc(Br)c(Br)c(Br)c1Br`, the residual activity worked out at 95.2%.

The next assay deals with ERBB2 (human) (UniProt P04626). The description is as above. Conditions: compound 0.5 µM; ATP 10 µM.
As for `CCN(CC)CCCCN1c2ccccc2Oc2ccc(Cl)cc21`, the residual activity came to 96.6%.

Consider `CC(=O)O/N=C1\C(=C2\C(=O)Nc3cc(Br)ccc32)Nc2ccccc21`, for which the residual activity worked out at 114%.

Regarding `O=C(O)/C=C/c1cc(Br)c(Br)c(Br)c1Br`, the residual activity stood at 95.4%.

The next assay concerns the target FES (human) (UniProt P07332). The assay is described as above. Particulars: compound 0.5 µM; ATP 10 µM.
For `CCN(CC)CCCCN1c2ccccc2Oc2ccc(Cl)cc21`, the residual activity was found to be 99.8%.

For `CC(=O)O/N=C1\C(=C2\C(=O)Nc3cc(Br)ccc32)Nc2ccccc21`, the residual activity is 115%.

Consider `O=C(O)/C=C/c1cc(Br)c(Br)c(Br)c1Br`, for which the residual activity turned out to be 88.8%.

For the next assay, the target named is FLT1 (human) (UniProt P17948). The assay is described as above. Conditions: compound 0.5 µM; ATP 10 µM.
Turning to `CCN(CC)CCCCN1c2ccccc2Oc2ccc(Cl)cc21`, the residual activity worked out at 94.3%.

Consider `CC(=O)O/N=C1\C(=C2\C(=O)Nc3cc(Br)ccc32)Nc2ccccc21`, for which the residual activity stood at 98.6%.

With `O=C(O)/C=C/c1cc(Br)c(Br)c(Br)c1Br`, the residual activity was 87.5%.

The next assay has as its target HIPK1 (human) (UniProt Q86Z02). The assay is described as above. Conditions: compound 0.5 µM; ATP 10 µM.
With `CCN(CC)CCCCN1c2ccccc2Oc2ccc(Cl)cc21`, the residual activity stood at 106%.

On to `CC(=O)O/N=C1\C(=C2\C(=O)Nc3cc(Br)ccc32)Nc2ccccc21`, for which the residual activity was found to be 83%.

Consider `O=C(O)/C=C/c1cc(Br)c(Br)c(Br)c1Br`, for which the residual activity amounted to 99.6%.

The next assay concerns the target HIPK3 (human) (UniProt Q9H422). Described as above. Particulars: compound 0.5 µM; ATP 10 µM.
Consider `CCN(CC)CCCCN1c2ccccc2Oc2ccc(Cl)cc21`, for which the residual activity was found to be 94.2%.

In the case of `CC(=O)O/N=C1\C(=C2\C(=O)Nc3cc(Br)ccc32)Nc2ccccc21`, the residual activity worked out at 76.7%.

Consider `O=C(O)/C=C/c1cc(Br)c(Br)c(Br)c1Br`, for which the residual activity amounted to 96.7%.

In another assay the target is IKBKE (human) (UniProt Q14164). The assay is described as above. Particulars: compound 0.5 µM; ATP 10 µM.
Take `CCN(CC)CCCCN1c2ccccc2Oc2ccc(Cl)cc21`: the residual activity stood at 102%.

With `CC(=O)O/N=C1\C(=C2\C(=O)Nc3cc(Br)ccc32)Nc2ccccc21`, the residual activity came to 81.4%.

In the case of `O=C(O)/C=C/c1cc(Br)c(Br)c(Br)c1Br`, the residual activity amounted to 96.8%.

For a further assay, the target named is INSRR (human) (UniProt P14616). The description is as above. Conditions: compound 0.5 µM; ATP 10 µM.
As to `CCN(CC)CCCCN1c2ccccc2Oc2ccc(Cl)cc21`, the residual activity was found to be 102%.

As for `CC(=O)O/N=C1\C(=C2\C(=O)Nc3cc(Br)ccc32)Nc2ccccc21`, the residual activity stood at 96.7%.

Turning to `O=C(O)/C=C/c1cc(Br)c(Br)c(Br)c1Br`, the residual activity is 88.2%.

Another assay deals with ITK (human) (UniProt Q08881). The assay is described as above. Particulars: compound 0.5 µM; ATP 10 µM.
As for `CCN(CC)CCCCN1c2ccccc2Oc2ccc(Cl)cc21`, the residual activity was 101%.

Regarding `CC(=O)O/N=C1\C(=C2\C(=O)Nc3cc(Br)ccc32)Nc2ccccc21`, the residual activity turned out to be 76.8%.

For `O=C(O)/C=C/c1cc(Br)c(Br)c(Br)c1Br`, the residual activity is 100%.

A further assay addresses MAP3K10 (human) (UniProt Q02779). Described as above. Conditions: compound 0.5 µM; ATP 10 µM.
As to `CCN(CC)CCCCN1c2ccccc2Oc2ccc(Cl)cc21`, the residual activity was 102%.

Turning to `CC(=O)O/N=C1\C(=C2\C(=O)Nc3cc(Br)ccc32)Nc2ccccc21`, the residual activity stood at 92.3%.

`O=C(O)/C=C/c1cc(Br)c(Br)c(Br)c1Br`: the residual activity was 92.3%.
